Each structure is given as a SMILES string.

For one data set, the system named is fish. Description: Toxicity of commercial fatty acid ethyl esters to fish over 48 h. The class given is in vivo. To be noted: at least 48 h.
In a further data set the test system is Gyrodactylus turnbulli. It counts as cell-based. To be noted: for antiparasitic activity of pure commercial ethyl ester: commercial ethyl ester form, Kolliphor and sonication. The text has this:
FIGS. 2A-2C include graphs showing antiparasitic effect of residue extract and preparations (FFA & FAEE) with and without the addition of the food-grade detergent Kolliphor (K) and sonication(S) prior to analysis. […] Gyrodactylus turnbulli was exposed to the following preparations: (2A) residue extract (RE) and RE with Kolliphor and sonication (RE-K-S); (2B) FFA and FFA with Kolliphor and sonication (FFA-K-S); and (2C) FAEE with Kolliphor and sonication (FAEE-K-S). The numbers represent the tested concentrations of the solution applied at μL mL^−1. n=3 wells with at least five observed parasites per well.
FIG. 5 includes a vertical bar graph showing dose-dependent antiparasitic effect of fatty acids in their ethyl ester form as tested in situ. Selected were the four FAs that appeared at the highest level in the residue and its extracts and preparations, as pure commercial compounds: myristic acid (14:0), palmitic acid (16:0), palmitoleic acid (16:1n7), and EPA (20:5n3). The analysis was carried out with the addition of Kolliphor (K) and sonication (S). Time to reach 50% parasite mortality was recorded.
FIG. 11A-11B include graphs showing in-situ antiparasitic effect against Gyrodactylus by commercial FAEEs. Gyrodactylus was exposed by commercial FAEEs at 18.75, 37.5, and 75 μM along with addition of 1% Kolliphor (K) and sonication(S).
An in-situ assay was carried out, as described previously (Kim et al., 2021). Briefly, infected guppies (as confirmed by observation under a stereomicroscope (Richards and Chubb 1996)) were anesthetized with 250 ppm of Sedanol (Stockton-Aquamor Ltd., Israel) (Zorin et al., 2019) followed by euthanasia (brain pithing). Tail fin clips with more than four parasites were excised and transferred, using watchmaker's forceps, to a single well of a 24-well plate containing standardized water (STW: dechlorinated tap water with Na2S2O3 at 0.37 mg L^−1 followed by autoclaving). Ethanol and STW, as well as the relevant solvents and preparation protocol used for extraction, were used as negative controls in each trial. Parasites were observed under an inverted microscope (Axiovert 40 CFL, Carl Zeiss AG) for 4 h, at intervals ranging from 5 to 30 min, during which detached and dead parasites were recorded. A total of 12-15 parasites (with three replicates) were analyzed for each treatment concentration.
Residue extract and preparations were tested at the following concentrations: residue extract at 2.5, 5 and 10 μL mL^−1, and FFA and FAEE at 2.5 and 5 μL mL^−1 (in ethanol). Selected pure active compounds were analyzed, based on the analysis of the FAEE composition. These included the ethyl esters of the following fatty acids: myristic acid (14:0), palmitic acid (16:0), palmitoleic acid (16:1n7), and EPA ([…]) (obtained from Nu-Check, USA). Tested concentrations were calculated based on the amount of active compound in the FA profile of ethyl esters according to the GC-results.

On to `CCCCC/C=C\C/C=C\C/C=C\CCCCC(=O)OCC` [18:3n6, ethyl gamma linolenate], for which the toxicity to fish entry in the data set with fish (7.3 μM to 14.5 μM) is listed as “non-toxic”.

With `CCCCCCCCCC(=O)OCC` [10:0, ethyl decanoate], the toxicity to fish entry with fish (18.75 μM to 37.5 μM) is recorded as “non-toxic”.

As for `CCCCCCCCCCCCCC(=O)OCC` [14:0, ethyl myristate], the “antiparasitic activity of pure commercial ethyl ester” value (from here on “antiparasitic activity”) in the data set with Gyrodactylus turnbulli is “activity”. Moreover, the toxicity to fish result in the data set with fish (7.3 μM to 14.5 μM) is recorded as “non-toxic”.

Regarding `CCCCCCCCC(=O)OCC` [9:0, ethyl nonanoate], the toxicity to fish result in the data set on fish (18.75 μM to 37.5 μM) is “non-toxic”.

Take `CCCCC/C=C\C/C=C\CCCCCCCC(=O)OCC` [18:2n6, ethyl linoleate]: in the data set with fish (7.3 μM to 14.5 μM), the toxicity to fish entry is recorded as “non-toxic”.

Take `CC/C=C\C/C=C\C/C=C\C/C=C\C/C=C\CCCC(=O)OCC` [20:5n3]: the “effect on the parasite at low concentrations” value in the data set with Gyrodactylus turnbulli (3 and 6 μL mL^−1) was “inducing parasite mortality”. The “dose dependence of antiparasitic effect” value in the data set on Gyrodactylus turnbulli (3 to 24 μL mL^−1) was “dose-dependent effect”. In addition, in the data set on Gyrodactylus turnbulli (12 and 24 μL mL^−1, compared with the other three FAEEs), the “relative activity (time to 50% parasite mortality)” value was “most active”. Moreover, the “antiparasitic activity” value in the data set with Gyrodactylus turnbulli is listed as “activity”. Moreover, the toxicity to fish entry with fish (7.3 μM to 14.5 μM) is listed as “non-toxic”.

`CC/C=C\C/C=C\C/C=C\CCCCCCCC(=O)OCC` [18:3n3, ethyl alpha linolenate]: the toxicity to fish entry in the data set on fish (7.3 μM to 14.5 μM) was “non-toxic”.

Turning to `CCCCCCCCCCCCCCCC(=O)OCC` [16:0, ethyl palmitate], in the data set on Gyrodactylus turnbulli, the “antiparasitic activity” value is “activity”. For the same molecule, the toxicity to fish result in the data set with fish (7.3 μM to 14.5 μM) is listed as “non-toxic”.

As to `CCCCCCCCCCCC(=O)OCC` [12:0, ethyl laurate], in the data set with fish (9.375 μM to 37.5 M), the toxicity to fish result is reported as “non-toxic”.

Source of the values: patent publication US20260083697A1, “COMPOSITION AND USE OF SAME FOR CONTROLLING INFECTIONS IN AQUATIC ORGANISMS” (priority 2022, published 2026).
